Results: publication PMC7247319, “The mitochondria-targeted peptide SS-31 binds lipid bilayers and modulates surface electrostatics as a key component of its mechanism of action” (The Journal of Biological Chemistry, 2020)
Where a SMILES comes first, the peptide text is derived from it. [ ]: non-standard residue; d: D form. Dmt = Cc1cc(O)cc(C)c1C[C@H](N)C(=O)O

Tested on: LUVs with 20% TOCL
Experiment: CG-5N assay of Ca2+ accumulation at model membrane interface
Settings: peptide titrated into LUVs with 20% TOCL prebound with Ca2+
Text: Figure 7. SS peptide effects on Ca^2+-membrane interactions and mitochondrial cation stress. A, profiles of surface potential decay (top) and ion distribution (bottom) based on GCS theory in the presence or absence of SS-31 (see supporting Results H for model description). B, effect of SS peptides on Ca^2+ accumulation at model membrane interfaces. […] C and D, effect of SS peptides on mitochondrial Ca^2+ uptake. C, time courses of TMRM or CG-5N emission in mitochondrial suspensions with ETH-129 in the absence (top) or presence (bottom) of SS-31 following the addition of NADH (black arrowheads) and CaCl2 (open arrowheads). See Fig. S18A for experimental details. […] Spectral deconvolution yielded the indicated components (see Fig. S19, A and B), which were used to quantify the area ratios of L2/iso in F (values shown are means ± S.D. (error bars) (n = 3). G, respirometry analysis. Mitochondria (1 mg ml^−1) were treated in the absence or presence of SS-31 (54.4 μM) or CaCl2 (1 mM) as indicated and measured for state 2 respiration (n = 10–12 each).
First, we measured the effects of SS peptides on the accumulation of Ca^2+ in the interfacial region of model membranes. […] We reasoned that the binding of Ca^2+ to the headgroup region of anionic lipid bilayers would reduce the bulk Ca^2+ detected by the CG-5N probe, providing a direct readout of Ca^2+ accumulation at the membrane interface. […]

With `Cc1cc(O)cc(C)c1C[C@H](NC(=O)[C@H](N)CCCNC(=N)N)C(=O)N[C@@H](CCCCN)C(=O)N[C@@H](Cc1ccccc1)C(N)=O` [SS-31, D-Arg-2′6′-dimethyl-Tyr-Lys-Phe-NH2] (H-[dR][Dmt]KF-NH2) the “release of Ca2+ from membrane interface (CG-5N response)” value was “released Ca^2+ from the membrane interface in a dose-dependent manner”.
